Results reported in ChEMBL document CHEMBL4477214.

target: Polymerase acidic protein (Influenza A virus (A/Puerto Rico/8/1934(H1N1)), UniProt P03433); assay: Inhibition of 8-histidine tagged influenza virus H1N1 N-terminal PA endonuclease expressed in Escherichia coli BL21 cells using single-stranded 5'-FAM fluorophore/3'-TAMRA quencher)-labeled 17-mer ssDNA-oligomer substrate measured over 45 mins by FRET analysis; settings: not given

Which IC50 does the source give for `Cc1c(O)c(=O)ccn1-c1ccccc1` here?
The IC50 was 18 µM.

`O=c1cc(CNCc2ccccc2)occ1O` was tested. Which IC50 did it give?
The IC50 was 2.7 µM.

`CS(=O)(=O)NCc1cc(=O)c(O)co1` was tested. Which IC50 did it give?
Its IC50 is 4.8 µM.

For `CN(Cc1cc(=O)c(O)co1)c1ccc(F)cc1`, which IC50 is on record?
The IC50 was 1.8 µM.

With `Cc1occ(O)c(=O)c1C(=O)NCCc1ccccc1` as the compound, how does the IC50 read?
The IC50 was 11.3 µM.

Which IC50 does the source give for `Cc1c(O)c(=O)ccn1C1CCCCC1` here?
Its IC50 is 14 µM.

With `CN(Cc1cc(=O)c(O)co1)c1cccc(F)c1` as the compound, how does the IC50 read?
The IC50 was 3.2 µM.

For `Cc1cc(=O)c(O)cn1-c1ccc(-c2ccccc2)cc1`, which IC50 is on record?
Its IC50 is 1.3 µM.

How did the IC50 turn out when `COc1cccc(CNC(=O)c2c(C)occ(O)c2=O)c1` was run?
The IC50 was 22.1 µM.

How did the IC50 turn out when `CCOC(=O)c1c(C)n(-c2ccc(Oc3ccccc3)cc2)cc(O)c1=O` was run?
Its IC50 is 5.2 µM.

How did the IC50 turn out when `Cc1cc(=O)c(O)cn1C1CCOCC1` was run?
The IC50 was 0.73 µM.

What does the source list for `CN(Cc1cc(=O)c(O)co1)c1ccncc1`?
IC50: > 100 µM; pIC50: < 4

`CCOC(=O)c1c(C)n(-c2ccccc2)cc(O)c1=O` was tested. Which IC50 did it give?
Its IC50 is 5.3 µM.

tested on: MDCK; assay: Cytotoxicity against MDCK cells after 48 hrs by cell-titre glo luminescence assay; assay type: cell-based, Canis lupus familiaris; settings: dog

Which CC50 does the source give for `CN(Cc1cc(=O)c(O)cn1-c1ccc(-c2nnn[nH]2)cc1)c1ccc(Cl)cc1` here?
The CC50 was 280 µM.

`O=C(O)/C(O)=C/C(=O)C1(Cc2ccc(Cl)cc2)CCN(Cc2ccccc2)CC1` was tested. Which CC50 did it give?
The CC50 was 284 µM.

tested on: Influenza A virus; assay: Antiviral activity against influenza A virus H1N1 ATCC VR-1737 infected in MDCK cells after 48 hrs by hemagglutination assay; assay type: functional, organism-based; settings: H1N1 ATCC VR-1737, MDCK

Which EC50 does the source give for `O=C(O)/C(O)=C/C(=O)C1(Cc2ccc(Cl)cc2)CCN(Cc2ccccc2)CC1` here?
The EC50 was 9 µM.
